Experiments:
[1] = Plasma protein binding assay (equilibrium dialysis); type: in vitro ADME; details: human plasma, 2 μM, dialysis 4 hours at 37° C.
Procedure: The dialysis device used in this example is a 96-well equilibrium dialysis plate (Cat #1006, HT Dialysis LLC, Gales Gerry, CT), and HTD 96 a/b dialysis membrane strips (Cat #1101, MWCO 12-14 kDa, HT Dialysis LLC). The dialysis device was assembled following the manufacturer's instructions.
The dialysis membrane strips were soaked in ultra-pure water at room temperature for approximately 1 hour. Each membrane strip containing 2 membranes was separated and soaked in 20:80 ethanol/water (v/v) for approximately 20 minutes, after which they were ready for used or were stored in the solution at 2-8° C. for up to a month. Prior to experiment, the membrane was rinsed and soaked for 20 minutes in ultra-pure water.
On the day of the experiment, the plasma was thawed by running under col tap water and centrifuged at 3220 rpm for 5 minutes to remove any clos. The pH value of the resulting plasma was checked. Only plasma with pH value with 7.0-8.0 could be used.
Both test and control compounds were dissolved in DMSO to achieve 10 mM stock solutions. Working solutions (400 μM) if test and control compounds were prepared by diluting 10μ p of stock solutions with 240 μL of DMSO. Loading matrix solutions (2 μM) of both test and control compounds were prepared by diluting 5 μL of working solutions with 995 μL of blank matrix.
To prepare the loading matrix containing the test compound or control compounds, aliquots of either test compound working solutions or control compound working solution were spiked into blank matrix to achieve final test concentrations. The concentration of organic solvent in the final solutions were no more than 1% (normally 0.5%). The samples were mixture thoroughly before being used.
To prepare the time zero (TO) samples to be used for recovery determinations. 50 μL aliquots of loading matrix solution were transferred in triplicate to the sample collection plate. The samples were immediately matched with opposite blank buffer to obtain a final volume of 100 μL of 1:1 matrix/dialysis buffer (v/v) in each well. 500 μL of stop solution were added to these TO samples. They were then stored at 2-8° C. pending further processes along with other post-dialysis samples.
To load the dialysis device, an aliquot of 150 μL of the loading matrix was transferred to the donor side of each dialysis well in triplicate, and 150 μL of the dialysis buffer was loaded to the received side of the well. The dialysis was placed in humidified incubator at 37° C. with 5% CO2 on a shaking platform that rated slowly (about 100 rpm) for 4 hours.
At the end of the dialysis, aliquots of 50 μL of samples were taken from both the buffer side and the matrix side of the dialysis deice. These samples were transferred into new 96-well plates (the sample collection plates). […]

human PDE-6C = human PDE-6C (Homo sapiens, UniProt P51160); assay: Human PDE-6C inhibition assay (fluorescence polarization); type: biochemical; details: human PDE6C, 100 nM FAM-cGMP, 60 minutes at room temperature
Sequence of human PDE-6C (P51160 whole entry): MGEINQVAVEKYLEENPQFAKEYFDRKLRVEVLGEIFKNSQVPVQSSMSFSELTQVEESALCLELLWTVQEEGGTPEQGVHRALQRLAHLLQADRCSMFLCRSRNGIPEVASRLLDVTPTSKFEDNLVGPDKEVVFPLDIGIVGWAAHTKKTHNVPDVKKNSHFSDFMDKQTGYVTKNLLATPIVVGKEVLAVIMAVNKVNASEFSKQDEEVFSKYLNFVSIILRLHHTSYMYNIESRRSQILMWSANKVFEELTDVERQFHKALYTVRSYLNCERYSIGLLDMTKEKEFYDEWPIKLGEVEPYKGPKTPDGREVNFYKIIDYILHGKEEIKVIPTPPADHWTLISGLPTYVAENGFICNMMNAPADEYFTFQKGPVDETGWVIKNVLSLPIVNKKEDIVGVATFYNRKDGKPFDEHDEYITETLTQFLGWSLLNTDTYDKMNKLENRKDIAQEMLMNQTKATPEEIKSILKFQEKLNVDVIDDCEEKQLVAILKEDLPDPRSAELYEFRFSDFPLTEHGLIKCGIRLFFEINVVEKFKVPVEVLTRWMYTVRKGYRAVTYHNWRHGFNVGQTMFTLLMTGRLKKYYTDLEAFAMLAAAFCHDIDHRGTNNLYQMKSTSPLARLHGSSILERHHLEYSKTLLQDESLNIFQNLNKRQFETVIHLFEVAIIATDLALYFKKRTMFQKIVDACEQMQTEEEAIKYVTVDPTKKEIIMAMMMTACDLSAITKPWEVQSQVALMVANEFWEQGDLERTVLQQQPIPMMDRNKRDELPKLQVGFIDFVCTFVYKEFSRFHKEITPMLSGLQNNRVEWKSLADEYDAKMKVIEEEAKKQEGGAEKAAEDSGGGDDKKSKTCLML

human PDE-5A1 = human PDE-5A1 (Homo sapiens, UniProt O76074); assay: Human PDE-5A1 inhibition assay (fluorescence polarization); type: biochemical; details: human PDE5A1, 100 nM FAM-cGMP, 60 minutes at room temperature
[2] = test system: ocular normotensive rabbits; assay: In vivo intraocular pressure (IOP) lowering effect in rabbits; design: species or system New Zealand white rabbits; details: 50 μL per eye once, right eye vs vehicle in left eye, 1-10 hours post dose
Text: This example illustrates the procedures and results of the intraocular pressure (IOP) lowering effect of compound 18 as compared to Latanoprostene bunod and latanoprost at different concentrations in ocular normotensive rabbits.
Forty (40) male New Zealand white rabbits were divided into 4 groups with 10 animals per group. Animals were then randomly assigned to groups based on body weight.
Latanoprostene bunod ophthalmic solution (LBN, 0.024%) and latanoprost eye drops (0.005%) were used as positive controls and dosed with the same volumes into the right eyes of the tested animals in groups 1 and 2 once.
Compound 18 was instilled into the right eyes of the tested animals in groups 3 (10 mg/mL) and 4 (20 mg/mL) at 50 μL per eye once.
All left eyes of the tested animals in each group were dosed with vehicle solution at 50 μL per eye.
The intraocular pressures (IOPs) were measured once at pre-dose and then once at 1, 2, 4, 6, 8, and 10 hours post dose for each group of animals. FIGS. 1 to 4 show the results from the IOP lowering studies for all four tested groups.

**Q.** Which “% Bound” value [1] does the source give for `CCCc1nn(C)c2c(=O)[nH]c(-c3cc(S(=O)(=O)N4CC(NCCCO)C4)ccc3OCC)nc12` [Compound 10, 5-(2-ethoxy-5-((3-((3-hydroxypropyl)amino)azetidin-1-yl)sulfonyl)phenyl)-1-methyl-3-propyl-1,6-dihydro-7H-pyrazolo[4,3-d]pyrimidin-7-one] here?
**A.** 86.19%

**Q.** And the IC50 (human PDE-6C)?
**A.** < 0.01 µM

**Q.** And the IC50 (human PDE-5A1)?
**A.** < 0.01 µM

**Q.** For `CCCc1nn(C)c2c(=O)[nH]c(-c3cc(S(=O)(=O)N4CC(CCCO[N+](=O)[O-])C4)ccc3OCC)nc12` [Compound 18, 3-(1-((4-ethoxy-3-(1-methyl-7-oxo-3-propyl-6,7-dihydro-1H-pyrazolo[4,3-d]pyrimidin-5-yl)phenyl)sulfonyl)azetidin-3-yl)propyl nitrate], which IOP lowering effect ([2]; 10 mg/mL) is on record?
**A.** significantly lower the IOP

**Q.** And the IOP lowering effect ([2]; 20 mg/mL)?
**A.** significantly lower the IOP

**Q.** What about the “% Bound” value [1] of the same molecule?
**A.** 99.52%

**Q.** And the IC50 (human PDE-6C)?
**A.** < 0.01 µM

**Q.** What about the IC50 (human PDE-5A1) of the same molecule?
**A.** < 0.01 µM

**Q.** For `CCCc1nn(C)c2c(=O)[nH]c(-c3cc(S(=O)(=O)N4CC(CCO[N+](=O)[O-])C4)ccc3OCC)nc12` [Compound 17, 2-(1-((4-ethoxy-3-(1-methyl-7-oxo-3-propyl-6,7-dihydro-1H-pyrazolo [4,3-d]pyrimidin-5-yl)phenyl)sulfonyl)azetidin-3-yl)ethyl nitrate], which IC50 (human PDE-6C) is on record?
**A.** < 0.01 µM

**Q.** What about the IC50 (human PDE-5A1) of the same molecule?
**A.** < 0.01 µM

**Q.** Which “% Bound” value [1] does the source give for `CCCc1nn(C)c2c(=O)[nH]c(-c3cc(S(=O)(=O)N4CC(CCCO)C4)ccc3OCC)nc12` [Compound 4, 5-(2-ethoxy-5-((3-(3-hydroxypropyl)azetidin-1-yl)sulfonyl)phenyl)-1-methyl-3-propyl-1,6-dihydro-7H-pyrazolo[4,3-d]pyrimidin-7-one] here?
**A.** 96.01%

**Q.** With `CCCc1nn(C)c2c(=O)[nH]c(-c3cc(S(=O)(=O)N4CC(NCCCO[N+](=O)[O-])C4)ccc3OCC)nc12` [Compound 22, 3-((1-((4-ethoxy-3-(1-methyl-7-oxo-3-propyl-6,7-dihydro-1H-pyrazolo[4,3-d]pyrimidin-5-yl)phenyl)sulfonyl)azetidin-3-yl)amino)propyl nitrate] as the molecule, how does the “% Bound” value [1] read?
**A.** 97.53%

Reference: patent US20220380376A1, “Nitrogen Oxide-Donating PDE-5 and/or PDE-6 Inhibitor Compounds” (ILDONG PHARMACEUTICAL CO., LTD., priority 2019, published 2022)
